Measured values: ChEMBL document CHEMBL4334464, “From Phenylthiazoles to Phenylpyrazoles: Broadening the Antibacterial Spectrum toward Carbapenem-Resistant Bacteria” (J Med Chem, 2019)
Values after ≈ are worked out from the molar mass of the structure shown.

System: Acinetobacter baumannii
Test: Ratio of MBC to MIC for Acinetobacter baumannii ATCC BAA 1747 clinical isolates
Assay type: functional
Conditions: not given

SMILES	Ratio
C/C(=N\NC(=N)N)c1cnn(-c2ccc(C#CC3(O)CCCCC3)cc2)c1C	>=1

System: not listed separately
Test: Antibacterial activity against Enterobacter cloacae subsp. cloacae ATCC BAA-1143 clinical isolates after 18 to 20 hrs in aerobic condition by CLSI-based broth microdilution assay
Assay type: functional
Conditions: not given

SMILES	MIC [µg/mL]
C/C(=N\NC(=N)N)c1cnn(-c2ccc(C#CC3(O)CCCCC3)cc2)c1C	16 (≈ 42.3 µM)

System: Staphylococcus aureus
Test: Antibacterial activity against linezolid-resistant/Methicillin-resistant Staphylococcus aureus NRS119 clinical isolates after 18 to 20 hrs in aerobic condition by CLSI protocol based broth microdilution assay
Assay type: functional
Conditions: not given

SMILES	MIC [µg/mL]
C/C(=N\NC(=N)N)c1cnn(-c2ccc(C#CC3(O)CCCCC3)cc2)c1C	2 (≈ 5.28 µM)

System: Staphylococcus aureus
Test: Antibacterial activity against vancomycin-resistant Staphylococcus aureus isolate 12 after 18 to 20 hrs in aerobic condition by CLSI-based broth microdilution assay
Assay type: functional
Conditions: not given

SMILES	MIC [µg/mL]
C/C(=N\NC(=N)N)c1cnn(-c2ccc(C#CC3(O)CCCCC3)cc2)c1C	2 (≈ 5.28 µM)

System: Staphylococcus aureus
Test: Ratio of MBC to MIC for Methicillin-sensitive Staphylococcus aureus ATCC 6538 clinical isolates
Assay type: functional
Conditions: not given

SMILES	Ratio
C/C(=N\NC(=N)N)c1cnn(-c2ccc(C#CC3(O)CCCCC3)cc2)c1C	<=2

System: Pseudomonas aeruginosa
Test: Ratio of MBC to MIC for Pseudomonas aeruginosa ATCC 15442 clinical isolates
Assay type: functional
Conditions: not given

SMILES	Ratio
C/C(=N\NC(=N)N)c1cnn(-c2ccc(C#CC3(O)CCCCC3)cc2)c1C	>=1

System: Enterococcus faecium
Test: Antibacterial activity against vancomycin-resistant Enterococcus faecium ATCC 700221 clinical isolates after 18 to 20 hrs in aerobic condition by CLSI-based broth microdilution assay
Assay type: functional
Conditions: not given

SMILES	MIC [µg/mL]
C/C(=N\NC(=N)N)c1cnn(-c2ccc(C#CC3(O)CCCCC3)cc2)c1C	2 (≈ 5.28 µM)

System: Klebsiella pneumoniae
Test: Ratio of MBC to MIC for Klebsiella pneumoniae BAA-1144 clinical isolates
Assay type: functional
Conditions: not given

SMILES	Ratio
C/C(=N\NC(=N)N)c1cnn(-c2ccc(C#CC3(O)CCCCC3)cc2)c1C	>=1

System: Escherichia coli
Test: Antibacterial activity against carbapenem-resistant Escherichia coli BAA-2452 clinical isolates after 18 to 20 hrs in aerobic condition by CLSI-based broth microdilution assay
Assay type: functional
Conditions: not given

SMILES	MIC [µg/mL]
C/C(=N\NC(=N)N)c1cnn(-c2ccc(C#CC3(O)CCCCC3)cc2)c1C	64 (≈ 169 µM)

System: Shigella flexneri
Test: Ratio of MBC to MIC for Shigella flexneri ATCC 9199 clinical isolates
Assay type: functional
Conditions: not given

SMILES	Ratio
C/C(=N\NC(=N)N)c1cnn(-c2ccc(C#CC3(O)CCCCC3)cc2)c1C	>=1

System: Staphylococcus aureus
Test: Antibacterial activity against Methicillin-resistant Staphylococcus aureus USA700-NRS386 clinical isolates after 18 to 20 hrs in aerobic condition by CLSI protocol based broth microdilution assay
Assay type: functional
Conditions: not given

SMILES	MIC [µg/mL]
C/C(=N\NC(=N)N)c1cnn(-c2ccc(C#CC3(O)CCCCC3)cc2)c1C	2 (≈ 5.28 µM)

System: Staphylococcus aureus
Test: Antibacterial activity against Methicillin-sensitive Staphylococcus aureus ATCC 6538 clinical isolates after 18 to 20 hrs in aerobic condition by CLSI protocol based broth microdilution assay
Assay type: functional
Conditions: not given

SMILES	MIC [µg/mL]
C/C(=N\NC(=N)N)c1cnn(-c2ccc(C#CC3(O)CCCCC3)cc2)c1C	2 (≈ 5.28 µM)

System: Acinetobacter baumannii
Test: Antibacterial activity against Acinetobacter baumannii ATCC BAA 1141 clinical isolates after 18 to 20 hrs in aerobic condition by CLSI-based broth microdilution assay
Assay type: functional
Conditions: not given

SMILES	MIC [µg/mL]
C/C(=N\NC(=N)N)c1cnn(-c2ccc(C#CC3(O)CCCCC3)cc2)c1C	8 (≈ 21.1 µM)

System: Salmonella enterica
Test: Ratio of MBC to MIC for Salmonella enterica NR-170 clinical isolates
Assay type: functional
Conditions: not given

SMILES	Ratio
C/C(=N\NC(=N)N)c1cnn(-c2ccc(C#CC3(O)CCCCC3)cc2)c1C	>=1

System: Salmonella enteritidis
Test: Antibacterial activity against Salmonella enteritidis ATCC 14028 clinical isolates after 18 to 20 hrs in aerobic condition by CLSI-based broth microdilution assay
Assay type: functional, Salmonella enterica subsp. enterica serovar Enteritidis
Conditions: Salmonella enterica

SMILES	MIC [µg/mL]
C/C(=N\NC(=N)N)c1cnn(-c2ccc(C#CC3(O)CCCCC3)cc2)c1C	32 (≈ 84.5 µM)

System: Acinetobacter baumannii
Test: Antibacterial activity against Acinetobacter baumannii ATCC 19606 clinical isolates after 18 to 20 hrs in aerobic condition by CLSI-based broth microdilution assay
Assay type: functional
Conditions: ATCC 19606 = CIP 70.34 = JCM 6841

SMILES	MIC [µg/mL]
C/C(=N\NC(=N)N)c1cnn(-c2ccc(C#CC3(O)CCCCC3)cc2)c1C	4 (≈ 10.6 µM)

System: Acinetobacter baumannii
Test: Ratio of MBC to MIC for Acinetobacter baumannii NR 17786 clinical isolates
Assay type: functional
Conditions: not given

SMILES	Ratio
C/C(=N\NC(=N)N)c1cnn(-c2ccc(C#CC3(O)CCCCC3)cc2)c1C	>=1

System: Klebsiella pneumoniae
Test: Ratio of MBC to MIC for Klebsiella pneumoniae BAA-1706 after 18 to 20 hrs in aerobic condition by CLSI-based broth microdilution assay
Assay type: functional
Conditions: not given

SMILES	Ratio
C/C(=N\NC(=N)N)c1cnn(-c2ccc(C#CC3(O)CCCCC3)cc2)c1C	>=1

System: Klebsiella pneumoniae
Test: Antibacterial activity against Klebsiella pneumoniae BAA-1144 clinical isolates after 18 to 20 hrs in aerobic condition by CLSI-based broth microdilution assay
Assay type: functional
Conditions: not given

SMILES	MIC [µg/mL]
C/C(=N\NC(=N)N)c1cnn(-c2ccc(C#CC3(O)CCCCC3)cc2)c1C	16 (≈ 42.3 µM)

System: Listeria monocytogenes
Test: Antibacterial activity against Listeria monocytogenes ATCC 19111 after 18 to 20 hrs in aerobic condition by CLSI-based broth microdilution assay
Assay type: functional
Conditions: not given

SMILES	MIC [µg/mL]
C/C(=N\NC(=N)N)c1cnn(-c2ccc(C#CC3(O)CCCCC3)cc2)c1C	2 (≈ 5.28 µM)

System: Pseudomonas aeruginosa
Test: Ratio of MBC to MIC for Pseudomonas aeruginosa ATCC 25619 clinical isolates
Assay type: functional
Conditions: not given

SMILES	Ratio
C/C(=N\NC(=N)N)c1cnn(-c2ccc(C#CC3(O)CCCCC3)cc2)c1C	>=1

System: Staphylococcus aureus
Test: Ratio of MBC to MIC for Methicillin-sensitive Staphylococcus aureus NRS107 clinical isolates
Assay type: functional
Conditions: not given

SMILES	Ratio
C/C(=N\NC(=N)N)c1cnn(-c2ccc(C#CC3(O)CCCCC3)cc2)c1C	<=2

System: Acinetobacter baumannii
Test: Antibacterial activity against carbapenem-resistant Acinetobacter baumannii ATCC BAA 1605 clinical isolates after 18 to 20 hrs in aerobic condition by CLSI-based broth microdilution assay
Assay type: functional
Conditions: not given

SMILES	MIC [µg/mL]
C/C(=N\NC(=N)N)c1cnn(-c2ccc(C#CC3(O)CCCCC3)cc2)c1C	32 (≈ 84.5 µM)

System: Shigella flexneri
Test: Antibacterial activity against Shigella flexneri ATCC 9199 clinical isolates after 18 to 20 hrs in aerobic condition by CLSI-based broth microdilution assay
Assay type: functional
Conditions: not given

SMILES	MIC [µg/mL]
C/C(=N\NC(=N)N)c1cnn(-c2ccc(C#CC3(O)CCCCC3)cc2)c1C	16 (≈ 42.3 µM)

System: Salmonella typhimurium
Test: Antibacterial activity against Salmonella typhimurium ATCC 700720 after 18 to 20 hrs in aerobic condition by CLSI-based broth microdilution assay
Assay type: functional, Salmonella enterica subsp. enterica serovar Typhimurium
Conditions: Salmonella enterica

SMILES	MIC [µg/mL]
C/C(=N\NC(=N)N)c1cnn(-c2ccc(C#CC3(O)CCCCC3)cc2)c1C	64 (≈ 169 µM)

System: Salmonella enteritidis
Test: Antibacterial activity against Salmonella enteritidis ATCC 13076 clinical isolates after 18 to 20 hrs in aerobic condition by CLSI-based broth microdilution assay
Assay type: functional, Salmonella enterica subsp. enterica serovar Enteritidis
Conditions: Salmonella enterica

SMILES	MIC [µg/mL]
C/C(=N\NC(=N)N)c1cnn(-c2ccc(C#CC3(O)CCCCC3)cc2)c1C	32 (≈ 84.5 µM)

System: Staphylococcus aureus
Test: Antibacterial activity against Methicillin-resistant Staphylococcus aureus NRS385-USA500 clinical isolates after 18 to 20 hrs in aerobic condition by CLSI protocol based broth microdilution assay
Assay type: functional
Conditions: not given

SMILES	MIC [µg/mL]
C/C(=N\NC(=N)N)c1cnn(-c2ccc(C#CC3(O)CCCCC3)cc2)c1C	2 (≈ 5.28 µM)

System: Staphylococcus aureus
Test: Antibacterial activity against vancomycin-resistant Staphylococcus aureus isolate 10 after 18 to 20 hrs in aerobic condition by CLSI-based broth microdilution assay
Assay type: functional
Conditions: not given

SMILES	MIC [µg/mL]
C/C(=N\NC(=N)N)c1cnn(-c2ccc(C#CC3(O)CCCCC3)cc2)c1C	2 (≈ 5.28 µM)

System: Salmonella enteritidis
Test: Ratio of MBC to MIC for Salmonella enteritidis ATCC 13076 clinical isolates
Assay type: functional, Salmonella enterica subsp. enterica serovar Enteritidis
Conditions: not given

SMILES	Ratio
C/C(=N\NC(=N)N)c1cnn(-c2ccc(C#CC3(O)CCCCC3)cc2)c1C	>=1

System: Enterobacter cloacae subsp. cloacae
Test: Ratio of MBC to MIC for Enterobacter cloacae subsp. cloacae ATCC BAA-1143 clinical isolates
Assay type: functional
Conditions: not given

SMILES	Ratio
C/C(=N\NC(=N)N)c1cnn(-c2ccc(C#CC3(O)CCCCC3)cc2)c1C	> 1

System: Escherichia coli
Test: Antibacterial activity against Escherichia coli BW25113 clinical isolates after 18 to 20 hrs in aerobic condition by CLSI-based broth microdilution assay
Assay type: functional
Conditions: not given

SMILES	MIC [µg/mL]
C/C(=N\NC(=N)N)c1cnn(-c2ccc(C#CC3(O)CCCCC3)cc2)c1C	8 (≈ 21.1 µM)

System: Acinetobacter baumannii
Test: Ratio of MBC to MIC for Acinetobacter baumannii NR 17785 clinical isolates
Assay type: functional
Conditions: not given

SMILES	Ratio
C/C(=N\NC(=N)N)c1cnn(-c2ccc(C#CC3(O)CCCCC3)cc2)c1C	>=1

System: Streptococcus pneumoniae
Test: Ratio of MBC to MIC for cephalosporin-resistant Streptococcus pneumoniae ATCC 51916 clinical isolates
Assay type: functional
Conditions: not given

SMILES	Ratio
C/C(=N\NC(=N)N)c1cnn(-c2ccc(C#CC3(O)CCCCC3)cc2)c1C	<3

System: Escherichia coli
Test: Antibacterial activity against Escherichia coli ATCC 35150 clinical isolates after 18 to 20 hrs in aerobic condition by CLSI-based broth microdilution assay
Assay type: functional
Conditions: not given

SMILES	MIC [µg/mL]
C/C(=N\NC(=N)N)c1cnn(-c2ccc(C#CC3(O)CCCCC3)cc2)c1C	16 (≈ 42.3 µM)

System: Acinetobacter baumannii
Test: Antibacterial activity against Acinetobacter baumannii NR 17785 clinical isolates after 18 to 20 hrs in aerobic condition by CLSI-based broth microdilution assay
Assay type: functional
Conditions: not given

SMILES	MIC [µg/mL]
C/C(=N\NC(=N)N)c1cnn(-c2ccc(C#CC3(O)CCCCC3)cc2)c1C	8 (≈ 21.1 µM)

System: Staphylococcus epidermidis
Test: Antibacterial activity against Staphylococcus epidermidis NRS101 after 18 to 20 hrs in aerobic condition by CLSI-based broth microdilution assay
Assay type: functional
Conditions: not given

SMILES	MIC [µg/mL]
C/C(=N\NC(=N)N)c1cnn(-c2ccc(C#CC3(O)CCCCC3)cc2)c1C	4 (≈ 10.6 µM)

System: Escherichia coli
Test: Antibacterial activity against carbapenem-resistant Escherichia coli BAA-2469 clinical isolates after 18 to 20 hrs in aerobic condition by CLSI-based broth microdilution assay
Assay type: functional
Conditions: not given

SMILES	MIC [µg/mL]
C/C(=N\NC(=N)N)c1cnn(-c2ccc(C#CC3(O)CCCCC3)cc2)c1C	64 (≈ 169 µM)

System: Escherichia coli
Test: Ratio of MBC to MIC for Escherichia coli ATCC 25922 clinical isolates
Assay type: functional
Conditions: not given

SMILES	Ratio
C/C(=N\NC(=N)N)c1cnn(-c2ccc(C#CC3(O)CCCCC3)cc2)c1C	>=1

System: Pseudomonas aeruginosa
Test: microbe, parasite or virus in culture
Conditions: ATCC 9027
Description: Antibacterial activity against Pseudomonas aeruginosa ATCC 9027 clinical isolates after 18 to 20 hrs in aerobic condition by CLSI-based broth microdilution assay

SMILES	MIC [µg/mL]
C/C(=N\NC(=N)N)c1cnn(-c2ccc(C#CC3(O)CCCCC3)cc2)c1C	32 (≈ 84.5 µM)

System: Escherichia coli
Test: Ratio of MBC to MIC for Escherichia coli ATCC 35150 clinical isolates
Assay type: functional
Conditions: not given

SMILES	Ratio
C/C(=N\NC(=N)N)c1cnn(-c2ccc(C#CC3(O)CCCCC3)cc2)c1C	>=1

System: Acinetobacter baumannii
Test: Ratio of MBC to MIC for Acinetobacter baumannii ATCC 19606 clinical isolates
Assay type: functional, ATCC 19606 = CIP 70.34 = JCM 6841
Conditions: not given

SMILES	Ratio
C/C(=N\NC(=N)N)c1cnn(-c2ccc(C#CC3(O)CCCCC3)cc2)c1C	>=1

System: Enterococcus faecalis
Test: Antibacterial activity against vancomycin-resistant Enterococcus faecalis ATCC 51299 clinical isolates after 18 to 20 hrs in aerobic condition by CLSI-based broth microdilution assay
Assay type: functional
Conditions: not given

SMILES	MIC [µg/mL]
C/C(=N\NC(=N)N)c1cnn(-c2ccc(C#CC3(O)CCCCC3)cc2)c1C	2 (≈ 5.28 µM)

System: Salmonella typhimurium
Test: Ratio of MBC to MIC for Salmonella typhimurium ATCC 700720 clinical isolates
Assay type: functional, Salmonella enterica subsp. enterica serovar Typhimurium
Conditions: not given

SMILES	Ratio
C/C(=N\NC(=N)N)c1cnn(-c2ccc(C#CC3(O)CCCCC3)cc2)c1C	>=1
